One may read the IC50 as the point on the concentration scale where inhibition reaches its midpoint. In general, inhibition refers to the change of the read-out against control, counted positive when it falls. Broadly, the melting point is the temperature, or range, at which the solid turns liquid.

Consider 17 molecules from patent publication US20210284618A1, “FURANOCHALCONES AS INHIBITORS OF CYP1A1, CYP1A2 AND CYP1B1 FOR CANCER CHEMOPREVENTION” (Council of Scientific & Industrial Research, priority 2016, published 2021).

A value given as a limit tells only on which side of the number the result lay.

One data set deals with T1, CYP1B1 (Homo sapiens, UniProt Q16678).
T1 sequence (Q16678 1-543): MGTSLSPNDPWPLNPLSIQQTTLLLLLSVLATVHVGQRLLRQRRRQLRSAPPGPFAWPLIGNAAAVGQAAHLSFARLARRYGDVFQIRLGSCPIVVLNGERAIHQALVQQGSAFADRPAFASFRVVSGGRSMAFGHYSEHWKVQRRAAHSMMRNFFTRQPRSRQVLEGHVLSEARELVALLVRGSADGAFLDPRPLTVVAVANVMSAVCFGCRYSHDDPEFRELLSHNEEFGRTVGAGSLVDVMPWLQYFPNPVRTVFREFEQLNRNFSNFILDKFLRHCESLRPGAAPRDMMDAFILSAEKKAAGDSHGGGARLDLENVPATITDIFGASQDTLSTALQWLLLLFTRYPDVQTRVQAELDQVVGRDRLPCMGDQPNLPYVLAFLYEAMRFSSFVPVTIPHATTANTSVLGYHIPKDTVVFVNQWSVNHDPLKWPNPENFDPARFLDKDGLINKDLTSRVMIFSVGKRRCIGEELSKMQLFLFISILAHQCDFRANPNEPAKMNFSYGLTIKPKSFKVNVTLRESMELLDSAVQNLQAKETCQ
In words: In-vitro CYP450 1B1 enzyme inhibition in Saccharosomes. Conditions: 10 μM test compound, 7-ethoxyresorufin; for inhibition at 10 μM: human, Saccharosomes (yeast-derived) with recombinant CYP1B1, probe 7-ethoxyresorufin (5 μl of 0.1 mM), % inhibition of CYP1B1 in Saccharosomes at 10 μM. It counts as biochemical. The arrangement: purchased CYP Design Ltd; host or cells: yeast microsomes (Saccharosomes). On the procedure:
Example 24. In-vitro CYP450 1B1 enzyme inhibition in Saccharosomes™: Regenerating system consists of: 5 μl Solution A (183 mg of NADP++183 mg of glucose-6-phosphate+654 μl of 1.0 M magnesium chloride solution+9.15 ml of sterile ultra-pure water)+1 μl Solution B (250 Units of glucose-6-phosphate dehydrogenase+6.25 ml of 5 mM sodium citrate; mixed in a tube and made up to 10 ml with sterile ultra-pure water)+39 μl 0.2 M Kpi (0.6 ml of 1.0M K2HPO4+9.4 ml of 1.0 M KH2PO4 were mixed and made up to 50 ml with sterile ultra-pure water)+5 μl potential inhibitory compound.
(§1) Example 25. IC50 determination for best compound against CYP1A1, CYP1B1 and other CYPs in Saccharosomes. Compounds were serially diluted to six different concentrations with 10% DMSO in a Sero-Well white microplate. The experiment was performed in a similar way as described above in examples 23 and 24.

Data set [1] addresses T2, CYP1A1 (Homo sapiens, UniProt P04798).
T2 construct: host or cells: yeast microsomes (Saccharosomes)
T2 sequence (P04798 1-512): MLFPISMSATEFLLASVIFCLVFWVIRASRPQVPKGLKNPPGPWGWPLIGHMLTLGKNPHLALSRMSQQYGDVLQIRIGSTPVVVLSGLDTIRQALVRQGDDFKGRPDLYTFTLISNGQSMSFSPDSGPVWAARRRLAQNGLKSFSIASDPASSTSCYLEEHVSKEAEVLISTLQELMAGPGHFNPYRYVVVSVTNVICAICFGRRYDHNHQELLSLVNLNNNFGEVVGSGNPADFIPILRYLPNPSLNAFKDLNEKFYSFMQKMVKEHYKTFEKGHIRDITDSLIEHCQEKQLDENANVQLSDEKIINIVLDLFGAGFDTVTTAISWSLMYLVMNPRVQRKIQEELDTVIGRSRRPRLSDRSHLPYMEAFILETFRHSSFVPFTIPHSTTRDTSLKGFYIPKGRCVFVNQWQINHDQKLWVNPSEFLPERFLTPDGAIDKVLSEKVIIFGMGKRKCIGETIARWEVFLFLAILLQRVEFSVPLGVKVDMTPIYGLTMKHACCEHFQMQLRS
Put plainly: CYP1A1 inhibition in HEK293 cells transfected with pcDNA3.1/CYP1A1 (live cells). It counts as cell-based. Conditions: for inhibition at 10 μM: human, HEK293 cells transfected with pcDNA3.1/CYP1A1 (live cells), probe EROD (5 μM), % inhibition of CYP1A1 in HEK293 cells at 10 μM; for inhibition at 10 μM / % inhibition of CYP1A1 in HEK293 cells at 10 μM: 5 μM EROD. The protocol:
Example 26. In-vitro CYP450 inhibition in HEK293 cells transfected with pcDNA3.1/CYP1A1 against 5 μM EROD. […] The HEK293 cells used here was procured from ‘European Collection of Authenticated Cell Cultures’ (catalog number. ECACC 85120602).

The target of data set [2] is T2, CYP1A1. Put plainly: In-vitro CYP450 1A1 enzyme inhibition in Saccharosomes. The data set is classed as biochemical. As to conditions: for inhibition at 20 min, 10 μM: human, Saccharosomes containing CYP1A1, pH 7.4, probe ethoxyresorufin (5 μM), % inhibition of CYP1A1 in Saccharosomes at 10 μM; for inhibition at 20 min, 10 μM / % inhibition of CYP1A1 in Saccharosomes at 10 μM: 10 μM test compound, 5 μM ethoxyresorufin. The protocol: Example 23. In-vitro CYP450 1A1 enzyme inhibition in Saccharosomes™: The screening method utilizes 384-well microplates to rapidly ascertain relative percentage inhibition of CYP1A1 by a library of compounds. Each reaction was performed in black, clear-bottomed 384-well microplates. A reaction volume of 50 μl comprised of 0.5 pmol of the cytochrome P450 CYP1A1 (Saccharosomes), 5 μM of ethoxyresorufin substrate (which contributes 0.05% DMSO to the well), 10 μM of potential inhibitor test article (which contributes 0.5% DMSO to the well), A P450 reductase NADPH regenerating system (1.3 mM NADP+, 3.3 mM glucose-6-0.02 units phosphate and glucose-6-Phosphate dehydrogenase), potassium phosphate buffer (final well concentration 100 mM, pH 7.4) and water. Very small quantities of magnesium chloride and sodium citrate are added to the NADPH regenerating system, in line with standard published protocols. The potential inhibitor (test article) was pre-incubated with CYP1A1 of at least 20 minutes at 30° C. After this period, the remainder of the reagents required in the assay was added to initiate the process. The reaction mixture was incubated for another 20 minutes at 30° C. The reaction was stopped by adding an 80% acetonitrile, 20% 0.5 M Tris solution. The reactions were monitored using the Biotek Synergy HT plate reader by measuring the endpoint reaction at Excitation 530/(25 bandwidth) & Emission 590/(20 bandwidth) using a gain/sensitivity setting of 60. The mean of the quadruplicates of the negative control (solvent inactivated CYP1A1) was deducted from the mean of potential inhibitor (test article) samples. The percentage was then derived relative to the mean of the wells without inhibitor.
as §1

As to `O=c1cc(-c2ccccc2)oc2c1ccc1ccccc12` [Alpha-naphthoflavone, reference compound], at CYP1B1, the “% inhibition of CYP1B1 in Saccharosomes at 10 μM” value stood at 98%. Moreover, at CYP1A1 [1], the IC50 is above 10000 nM and the inhibition at 10 μM stood at 30%. Besides, at CYP1A1 [2], the half-inhibitory concentration (IC50) is 90 nM and the inhibition at 20 min, 10 μM was 97%.
In the case of `COc1c2occc2c(OC)c2c(=O)cc(C)oc12` [Compound 1, Khellin, reference compound], on CYP1A1 [2], the “% inhibition of CYP1A1 in Saccharosomes at 10 μM” value turned out to be 88.3% and the inhibition at 20 min, 10 μM is 88%.
In turn, `COc1c(C(C)=O)c(O)c(OC)c2occc12` [Compound 2, 1-(6-hydroxy-4,7-dimethoxybenzofuran-5-yl)ethanone] registered an inhibition at 10 μM against CYP1A1 [1] above 80%.
For the molecule `COc1c(C(=O)/C=C/c2ccc(Br)cc2)c(O)c(OC)c2occc12` [Compound 3, 3-(4,7-dimethoxy-6-hydroxybenzofuran-5-yl)-1-(4-bromophenyl)-3-oxopropene], the melting point lay within 135 to 137 °C.
Turning to `COc1c(C(=O)/C=C/c2ccc(Cl)cc2)c(O)c(OC)c2occc12` [Compound 4, 3-(4,7-dimethoxy-6-hydroxybenzofuran-5-yl)-1-(4-chlorophenyl)-3-oxopropene], the melting point was 162 to 164 °C. Besides, on CYP1A1 [1], the “% inhibition of CYP1A1 in HEK293 cells at 10 μM” value turned out to be 85.7% and the inhibition at 10 μM was above 80%. The inhibition at 20 min, 10 μM at CYP1A1 [2] amounted to 77.5%.
Molecule `COc1c(C(=O)/C=C/c2ccc(F)c(Br)c2)c(O)c(OC)c2occc12` [Compound 5, 3-(4,7-dimethoxy-6-hydroxybenzofuran-5-yl)-1-(3-bromo-4-fluorophenyl)-3-oxopropene] showed a melting point of 186 to 188 °C. On CYP1A1 [1], the “% inhibition of CYP1A1 in HEK293 cells at 10 μM” value was found to be 82.3% and the inhibition at 10 μM is above 80%. On CYP1A1 [2], the “% inhibition of CYP1A1 in Saccharosomes at 10 μM” value stood at 83.1% and the inhibition at 20 min, 10 μM is above 80%.
In the case of `COc1c(C(=O)/C=C/c2ccc(F)cc2F)c(O)c(OC)c2occc12` [Compound 7, 3-(4,7-dimethoxy-6-hydroxybenzofuran-5-yl)-1-(2,4-difluorophenyl)-3-oxopropene], the melting point is 154 to 156 °C. This molecule also came in with an inhibition at 10 μM at CYP1A1 [1] above 80%.
`COc1cccc(/C=C/C(=O)c2c(O)c(OC)c3occc3c2OC)c1OC` [Compound 13, 3-(4,7-dimethoxy-6-hydroxybenzofuran-5-yl)-1-(2,3 dimethoxyphenyl)-3-oxopropene] displayed a melting point of 260 to 262 °C.
The molecule `COc1c(C(=O)/C=C/c2ccccc2)c(O)c(OC)c2occc12` [Compound 16, 3-(4,7-dimethoxy-6-hydroxybenzofuran-5-yl)-1-(phenyl)-3-oxopropene] showed an inhibition at 10 μM against CYP1A1 [1] above 80%. Further, the inhibition at 20 min, 10 μM on CYP1A1 [2] is above 80%.
`COc1ccc(/C=C/C(=O)c2c(O)c(OC)c3occc3c2OC)cc1Br` [Compound 17, 3-(4,7-dimethoxy-6-hydroxybenzofuran-5-yl)-1-(3-bromo-4-methoxyphenyl)-3-oxopropene] showed an inhibition at 10 μM against CYP1A1 [1] of 74%. On CYP1A1 [2], the inhibition at 20 min, 10 μM was found to be 37%.
Regarding `COc1cc(OC)c(OC)cc1/C=C/C(=O)c1c(O)c(OC)c2occc2c1OC` [Compound 18, 3-(4,7-dimethoxy-6-hydroxybenzofuran-5-yl)-1-(2,4,5-trimethoxyphenyl)-3-oxopropene], at CYP1A1 [1], the “% inhibition of CYP1A1 in HEK293 cells at 10 μM” value came out at 96.8% and the inhibition at 10 μM is above 80%. At CYP1A1 [2], the “% inhibition of CYP1A1 in Saccharosomes at 10 μM” value was found to be 92.2% and the inhibition at 20 min, 10 μM was above 80%.
As for `COc1c(C(=O)/C=C/c2ccc3c(c2)OCO3)c(O)c(OC)c2occc12` [Compound 19, 3-(benzo[d][1,3]dioxol-5-yl)-1-(6-hydroxy-4,7-dimethoxybenzofuran-5-yl)prop-2-en-1-one], the inhibition at 10 μM on CYP1B1 stood at 41.6%. The inhibition at 20 min, 10 μM on CYP1A1 [2] was determined as 48.4%.
In the case of `COc1c(C(=O)/C=C/c2ccsc2)c(O)c(OC)c2occc12` [Compound 20, 1-(6-hydroxy-4,7-dimethoxybenzofuran-5-yl)-3-(thiophen-3-yl)prop-2-en-1-one], the “% inhibition of CYP1B1 in Saccharosomes at 10 μM” value at CYP1B1 (10 µM) came out at 84.0%. Moreover, on CYP1B1, the inhibition at 10 μM is above 80%. At CYP1A1 [1], the inhibition at 10 μM came to 79.4%. At CYP1A1 [2], the “% inhibition of CYP1A1 in Saccharosomes at 10 μM” value was 95.1% and the inhibition at 20 min, 10 μM is above 80%.
With `COc1c(C(=O)/C=C/c2ccc(Cl)cc2Cl)c(O)c(OC)c2occc12` [Compound 21, 3-(2,4-dichlorophenyl)-1-(6-hydroxy-4,7-dimethoxybenzofuran-5-yl)prop-2-en-1-one], the inhibition at 10 μM on CYP1B1 was found to be 51.4%. The inhibition at 10 μM at CYP1A1 [1] was 71.4%. At CYP1A1 [2], the “% inhibition of CYP1A1 in Saccharosomes at 10 μM” value stood at 80.2% and the inhibition at 20 min, 10 μM is above 80%.
Turning to `COc1c(C(=O)/C=C/c2ccc3ccccc3c2)c(O)c(OC)c2occc12` [Compound 22, 1-(6-hydroxy-4,7-dimethoxybenzofuran-5-yl)-3-(naphthalen-2-yl)prop-2-en-1-one], the inhibition at 10 μM on CYP1B1 worked out at 25.8%. Moreover, the inhibition at 20 min, 10 μM at CYP1A1 [2] was 49.7%.
For `COc1c(C(=O)/C=C/c2ccccc2F)c(O)c(OC)c2occc12` [Compound 23, 3-(2-fluorophenyl)-1-(6-hydroxy-4,7-dimethoxybenzofuran-5-yl)prop-2-en-1-one], in that order: 34.2% and 41.1%.
As for `COc1c(C(=O)/C=C/c2ccc3cc4ccccc4cc3c2)c(O)c(OC)c2occc12` [Compound 24, 3-(anthracen-2-yl)-1-(6-hydroxy-4,7-dimethoxybenzofuran-5-yl)prop-2-en-1-one], the inhibition at 10 μM at CYP1B1 is 19.2%. Further, at CYP1A1 [2], the inhibition at 20 min, 10 μM was determined as 43.4%.
